Entries after “also recorded” stand apart in the source; their conditions may differ. Where two headings read alike, the source gives them in different places. Each block holds one molecule with its values, some of them ahead of it.
Assays:
[1] = test system: Glucose dehydrogenase (immobilized enzyme); settings: substrate glucose, NADP; 1M additive/buffer pH 7.0; 25° C. for 30 minutes
Experimental: (§1) The solution was stirred at 25° C. for 30 minutes to allow the enzyme to react with the substrate. Then, WST1 and mPMS were added for color development. Absorbance was measured with a spectrophotometer.

[2] = test system: Glutamate dehydrogenase (immobilized enzyme); settings: substrate monosodium glutamate, NADP; 1M additive/buffer pH 7.0; 25° C. for 30 minutes
Experimental: as §1

[3] = test system: Formate dehydrogenase (immobilized enzyme); settings: substrate sodium formate, NAD; 1M additive/buffer pH 7.0; 25° C. for 30 minutes
Experimental: as §1

[4] = test system: Formate dehydrogenase (immobilized enzyme); test: Effects of heterocyclic compounds on activity of immobilized formate dehydrogenase (WST1/mPMS, absorbance), Examples 4-8; settings: for enzyme activity of immobilized enzyme in the presence of the heterocyclic compound (in words): immobilized formate dehydrogenase, Examples 4-8
Experimental: A support was applied a fibrous base material cut in pieces 1 cm^2 in area, followed by drying. Each piece of fibrous base material was allowed to absorb a liquid obtained by mixing 2.5% glutaraldehyde, 20% poly-L-lysine, 10 mM Tris-HCl (pH 8.0), and formate dehydrogenase, followed by drying. Thus, immobilized enzymes were prepared.
The solution was stirred at 25° C. for 30 minutes to induce a reaction. Then, WST1 and mPMS were added for color development. Absorbance was measured with a spectrophotometer (Infinite M200 manufactured by TECAN).

Molecule: Cl.c1c[nH]cn1 [Example 1, imidazole HCl]
- OD [1]: 0.4668

Molecule: Cl.c1c[nH]cn1 [Example 2, imidazole HCl]
- OD [2]: 1.1707

Molecule: Cl.c1c[nH]cn1 [Example 3, imidazole HCl]
- OD [3]: 0.5996

Molecule: c1cnccn1 [Example 4, Pyrazine]
- enzyme activity of immobilized enzyme in the presence of the heterocyclic compound (in words) [4]: excellent enzyme activity; also recorded: significantly improved enzyme activity

Molecule: O=C1NCCN1 [Example 5, 2-Imidazolidinone]
- enzyme activity of immobilized enzyme in the presence of the heterocyclic compound (in words) [4]: excellent enzyme activity; also recorded: significantly improved enzyme activity

Molecule: C=Cn1ccnc1 [Example 6, 1-Vinylimidazole]
- enzyme activity of immobilized enzyme in the presence of the heterocyclic compound (in words) [4]: excellent enzyme activity; also recorded: significantly improved enzyme activity

- OD ([4]; 0.2M heterocyclic compound, 25° C. for 30 minutes): 1.1902
- enzyme activity of immobilized enzyme in the presence of the heterocyclic compound (in words) [4]: excellent enzyme activity
Molecule: N[C@@H](Cc1c[nH]cn1)C(=O)O [Example 8, Histidine]

Molecule: sodium phosphate buffer [Comparative Example 1, reference compound]
- OD [1]: 0.1598

- OD [3]: 0.4134
Molecule: sodium phosphate buffer [Comparative Example 3, reference compound]

- OD [2]: 0.3966
Molecule: sodium phosphate buffer [reference compound]

From US10490837B2, “Bioreactor comprising immobilized enzyme, method for improving activity of immobilized enzyme, and biofuel cell” (TOYOTA JIDOSHA KABUSHIKI KAISHA, priority 2012, dated 2019)
